Measurements: patent US9635859B2, “Pesticidal compositions and processes related thereto” (Dow AgroSciences LLC, priority 2012, dated 2017)

Each compound was assayed on Beet Armyworm (Spodoptera exigua) (assay: Bioassays on BAW, 128-well diet tray assay). Settings: percent mortality, second instar larvae, 50 μg/cm^2 on artificial diet, five to seven days, 25° C.; Table 3.
Assay type: in vivo
Experimental: Certain molecules disclosed in this document were tested against BAW and CEW and CL using procedures described in the following examples. In the reporting of the results, the “BAW & CEW & CL Rating Table” was used (See Table Section).
Bioassays on BAW (Spodoptera exigua)
Bioassays on BAW were conducted using a 128-well diet tray assay. one to five second instar BAW larvae were placed in each well (3 mL) of the diet tray that had been previously filled with 1 mL of artificial diet to which 50 μg/cm^2 of the test compound (dissolved in 50 μL of 90:10 acetone-water mixture) had been applied (to each of eight wells) and then allowed to dry. Trays were covered with a clear self-adhesive cover, and held at 25° C., 14:10 light-dark for five to seven days. Percent mortality was recorded for the larvae in each well; activity in the eight wells was then averaged. The results are indicated in the table entitled “Table 3: Assay Results” (See Table Section).

SMILES | BAW Rating
O=C(NCc1ccc(/C=C/C(c2cc(Cl)c(Cl)c(Cl)c2)C(F)(F)F)cc1Br)C1CC1 (stereo not shown) [CC26] | A (50-100)
O=C(CC(F)(F)F)NCc1ccc(/C=C/C(c2cc(Cl)c(Cl)c(Cl)c2)C(F)(F)F)cc1F (stereo not shown) [CC27] | A (50-100)
O=C(NCc1ccc(/C=C/C(c2cc(Cl)c(Cl)c(Cl)c2)C(F)(F)F)cc1F)C1CC1 (stereo not shown) [CC28] | A (50-100)
O=C(C1CC1)N(Cc1ccccn1)Cc1ccc(/C=C/C(c2cc(Cl)c(Cl)c(Cl)c2)C(F)(F)F)cc1C(F)(F)F (stereo not shown) [CC29, (E)-N-(Pyridin-2-ylmethyl)-N-(4-(4,4,4-trifluoro-3-(3,4,5-trichlorophenyl)but-1-enyl)-2-(trifluoromethyl)benzyl)cyclopropanecarboxamide] | A (50-100)
CS(=O)(=O)CCC(=O)NCc1ccc(/C=C/C(c2cc(Cl)c(Cl)c(Cl)c2)C(F)(F)F)cc1Cl (stereo not shown) [CC30, (E)-N-(2-Chloro-4-(4,4,4-trifluoro-3-(3,4,5-trichlorophenyl)but-1-en-1-yl)benzyl)-3-(methylsulfonyl)propanamide] | A (50-100)
CCNC(=O)NCc1ccc(/C=C/C(c2cc(Cl)cc(Cl)c2)C(F)(F)F)cc1Cl (stereo not shown) [CC31, (E)-1-(2-Chloro-4-(3-(3,5-dichlorophenyl)-4,4,4-trifluorobut-1-en-1-yl)benzyl)-3-ethylurea] | B (More than 0-Less than 50)
CCNC(=O)NCc1ccc(/C=C/C(c2cc(Cl)c(Cl)c(Cl)c2)C(F)(F)F)cc1C(F)(F)F (stereo not shown) [CC32] | A (50-100)
CCNC(=O)NCc1ccc(/C=C/C(c2cc(Cl)c(Cl)c(Cl)c2)C(F)(F)F)cc1Br (stereo not shown) [CC33] | A (50-100)
O=C(NCc1ccc(/C=C/C(c2cc(Cl)c(Cl)c(Cl)c2)C(F)(F)F)cc1Cl)N1CCOCC1 (stereo not shown) [CC34] | A (50-100)
CN(C)C(=O)NCc1ccc(/C=C/C(c2cc(Cl)c(Cl)c(Cl)c2)C(F)(F)F)cc1Cl (stereo not shown) [CC36, (E)-3-(2-Chloro-4-(4,4,4-trifluoro-3-(3,4,5-trichlorophenyl)but-1-en-1-yl)benzyl)-1,1-dimethylurea] | A (50-100)
CCNC(=S)NCc1ccc(/C=C/C(c2cc(Cl)c(Cl)c(Cl)c2)C(F)(F)F)cc1Cl (stereo not shown) [CC37, (E)-1-(2-Chloro-4-(4,4,4-trifluoro-3-(3,4,5-trichlorophenyl)but-1-en-1-yl)benzyl)-3-ethylthiourea] | A (50-100)
C=CCNC(=S)NCc1ccc(/C=C/C(c2cc(Cl)c(Cl)c(Cl)c2)C(F)(F)F)cc1Cl (stereo not shown) [CC38] | A (50-100)
FC(F)(F)C(/C=C/c1ccc(CNc2ccccn2)c(Cl)c1)c1cc(Cl)c(Cl)c(Cl)c1 (stereo not shown) [CC43, (E)-N-(2-Chloro-4-(4,4,4-trifluoro-3-(3,4,5-trichlorophenyl)but-1-en-1-yl)benzyl)pyridin-2-amine] | A (50-100)
O=C(CC(F)(F)F)NCc1ncc(/C=C/C(c2cc(Cl)c(Cl)c(Cl)c2)C(F)(F)F)cc1Cl (stereo not shown) [CC44, (E)-N-((3-Chloro-5-(4,4,4-trifluoro-3-(3,4,5-trichlorophenyl)-but-1-en-1-yl)pyridin-2-yl)methyl)-3,3,3-trifluoropropanamide] | A (50-100)
O=C(NCc1ncc(/C=C/C(c2cc(Cl)c(Cl)c(Cl)c2)C(F)(F)F)cc1Cl)C1CC1 (stereo not shown) [CC45] | A (50-100)
O=C(NNc1ccc(/C=C/C(c2cc(Cl)c(Cl)c(Cl)c2)C(F)(F)F)cc1)C1CC1 (stereo not shown) [CC50, (E)-N′-(4-(4,4,4-Trifluoro-3-(3,4,5-trichlorophenyl)but-1-en-1-yl)phenyl)cyclopropanecarbohydrazide] | A (50-100)
O=C(CC(F)(F)F)NNc1ccc(/C=C/C(c2cc(Cl)c(Cl)c(Cl)c2)C(F)(F)F)cc1 (stereo not shown) [CC51] | A (50-100)
O=C(NOc1ccc(/C=C/C(c2cc(Cl)c(Cl)c(Cl)c2)C(F)(F)F)cc1)C1CC1 (stereo not shown) [CC52, (E)-N-(4-(4,4,4-Trifluoro-3-(3,4,5-trichlorophenyl)but-1-en-1-yl)phenoxy)cyclopropanecarboxamide] | A (50-100)
O=C(CC(F)(F)F)NCc1ccc(/C=C\C(c2cc(Cl)c(Cl)c(Cl)c2)C(F)(F)F)cc1 (stereo not shown) [CC54, (Z)-3,3,3-Trifluoro-N-(4-(4,4,4-trifluoro-3-(3,4,5-trichlorophenyl)but-1-en-1-yl)benzyl)propanamide] | A (50-100)
FC(F)(F)C(/C=C/c1ccc(-n2cncn2)cc1)c1cc(Cl)cc(Cl)c1 (stereo not shown) [DC1, (E)-1-(4-(3-(3,5-Dichlorophenyl)-4,4,4-trifluorobut-1-en-1-yl)phenyl)-1H-1,2,4-triazole] | A (50-100)
FC(F)(F)C(/C=C/c1ccc(-n2cncn2)cc1)c1ccccc1 (stereo not shown) [DC3] | B (More than 0-Less than 50)
FC(F)(F)C(/C=C/c1ccc(-n2cncn2)cc1)c1ccc(Cl)cc1 (stereo not shown) [DC4] | A (50-100)
Fc1ccc(C(/C=C/c2ccc(-n3cncn3)cc2)C(F)(F)F)cc1 (stereo not shown) [DC7] | A (50-100)
Fc1cc(F)cc(C(/C=C/c2ccc(-n3cncn3)cc2)C(F)(F)F)c1 (stereo not shown) [DC8] | A (50-100)
Cc1cc(C)cc(C(/C=C/c2ccc(-n3cncn3)cc2)C(F)(F)F)c1 (stereo not shown) [DC11] | A (50-100)
FC(F)(F)C(/C=C/c1ccc(-n2cncn2)cc1)c1ccc(Cl)c(Cl)c1 (stereo not shown) [DC12] | A (50-100)

SMILES | BAW Rating
FC(F)(F)c1cc(C(/C=C/c2ccc(-n3cncn3)cc2)C(F)(F)F)cc(C(F)(F)F)c1 (stereo not shown) [DC16] | A (50-100)
COc1c(Cl)cc(C(/C=C/c2ccc(-n3cncn3)cc2)C(F)(F)F)cc1Cl (stereo not shown) [DC20] | A (50-100)
N#Cc1cc(/C=C/C(c2cc(Cl)cc(C(F)(F)F)c2)C(F)(F)F)ccc1-n1cncn1 (stereo not shown) [DC33] | A (50-100)
COc1c(Cl)cc(C(/C=C/c2ccc(-n3cncn3)c(C#N)c2)C(F)(F)F)cc1Cl (stereo not shown) [DC34] | A (50-100)
N#Cc1cc(/C=C/C(c2cc(Cl)c(F)c(Cl)c2)C(F)(F)F)ccc1-n1cncn1 (stereo not shown) [DC35] | A (50-100)
N#Cc1cc(/C=C/C(c2cc(Cl)cc(Cl)c2)C(F)(F)F)ccc1-n1cnc([N+](=O)[O-])n1 (stereo not shown) [DC37] | A (50-100)
N#Cc1cc(/C=C/C(c2cc(Cl)cc(Cl)c2)C(F)(F)F)ccc1-n1cnc(N)n1 (stereo not shown) [DC38] | A (50-100)
CC(=O)Nc1ncn(-c2ccc(/C=C/C(c3cc(Cl)cc(Cl)c3)C(F)(F)F)cc2C#N)n1 (stereo not shown) [DC39] | A (50-100)
N#Cc1cc(/C=C/C(c2cc(Cl)c(Cl)c(Cl)c2)C(F)(F)F)ccc1-n1cnc([N+](=O)[O-])n1 (stereo not shown) [DC40, (E)-2-(3-Nitro-1H-1,2,4-triazol-1-yl)-5-(4,4,4-trifluoro-3-(3,4,5-trichlorophenyl)but-1-en-1-yl)benzonitrile] | A (50-100)
N#Cc1cc(/C=C/C(c2cc(Cl)c(Cl)c(Cl)c2)C(F)(F)F)ccc1-n1cnc(N)n1 (stereo not shown) [DC41, (E)-2-(3-Amino-1H-1,2,4-triazol-1-yl)-5-(4,4,4-trifluoro-3-(3,4,5-trichlorophenyl)but-1-en-1-yl)benzonitrile] | A (50-100)
N#Cc1cc(/C=C/C(c2cc(Cl)c(Cl)c(Cl)c2)C(F)(F)F)ccc1-n1cnc(N(C(=O)C2CC2)C(=O)C2CC2)n1 (stereo not shown) [DC42, (E)-N-(1-(2-Cyano-4-(4,4,4-trifluoro-3-(3,4,5-trichlorophenyl)but-1-en-1-yl)phenyl)-1H-1,2,4-triazol-3-yl)-N-(cyclopropanecarbonyl)cyclopropanecarboxamide] | A (50-100)
N#Cc1cc(/C=C/C(c2cc(Cl)c(Cl)c(Cl)c2)C(F)(F)F)ccc1-n1cnc(NC(=O)C2CC2)n1 (stereo not shown) [DC43, (E)-N-(1-(2-Cyano-4-(4,4,4-trifluoro-3-(3,4,5-trichlorophenyl)but-1-en-1-yl)phenyl)-1H-1,2,4-triazol-3-yl)cyclopropanecarboxamide] | A (50-100)
Cc1cc(/C=C/C(c2cc(Cl)cc(Cl)c2)C(F)(F)F)cc(C#N)c1-n1cncn1 (stereo not shown) [DC44] | A (50-100)
Cc1cc(/C=C/C(c2cc(Cl)c(Cl)c(Cl)c2)C(F)(F)F)cc(C#N)c1-n1cncn1 (stereo not shown) [DC45] | A (50-100)
N#Cc1cc(/C=C\C(c2cc(Cl)c(F)c(Cl)c2)C(F)(F)F)ccc1-n1cncn1 (stereo not shown) [DC46] | A (50-100)
FC(F)(F)C(/C=C/c1ccc(-n2cncn2)c(Br)c1)c1cc(Cl)cc(Cl)c1 (stereo not shown) [DC47] | A (50-100)
Fc1cc(/C=C/C(c2cc(Cl)cc(Cl)c2)C(F)(F)F)ccc1-n1cncn1 (stereo not shown) [DC48] | A (50-100)
FC(F)(F)C(/C=C/c1ccc(-n2cncn2)c(Cl)c1)c1cc(Cl)c(Cl)c(Cl)c1 (stereo not shown) [DC49] | A (50-100)
FC(F)(F)C(/C=C/c1ccc(-n2cncn2)c(Cl)c1)c1cc(Cl)cc(Cl)c1 (stereo not shown) [DC50] | A (50-100)
FC(F)(F)c1cc(/C=C/C(c2cc(Cl)cc(Cl)c2)C(F)(F)F)ccc1-n1cncn1 (stereo not shown) [DC51] | A (50-100)
CNc1cc(/C=C/C(c2cc(Cl)cc(Cl)c2)C(F)(F)F)ccc1-n1cncn1 (stereo not shown) [DC57, (E)-5-(3-(3,5-Dichlorophenyl)-4,4,4-trifluorobut-1-en-1-yl)-N-methyl-2-(1H-1,2,4-triazol-1-yl)aniline] | A (50-100)
CCOC(=O)c1cc(/C=C/C(c2cc(Cl)cc(Cl)c2)C(F)(F)F)ccc1-n1cncn1 (stereo not shown) [DC60] | A (50-100)
Cc1cc(/C=C/C(c2cc(Cl)cc(Cl)c2)C(F)(F)F)ccc1-n1cncn1 (stereo not shown) [DC62] | A (50-100)
Cc1cc(/C=C/C(c2cc(Cl)c(Cl)c(Cl)c2)C(F)(F)F)ccc1-n1cncn1 (stereo not shown) [DC63] | A (50-100)
FC(F)(F)C(/C=C/c1ccc(-n2cncn2)cc1Cl)c1cc(Cl)c(Cl)c(Cl)c1 (stereo not shown) [DC66] | A (50-100)
FC(F)(F)C(/C=C/c1ccc(-n2cncn2)cc1Cl)c1cc(Cl)cc(Cl)c1 (stereo not shown) [DC67] | A (50-100)
